The source of these data is patent publication US7109245B2, “Vasoconstrictor cannabinoid analogs” (priority 2001, dated 2006).

“Also recorded” adds a separate entry of the source. Where two headings read alike, the source gives them in different places.

Test [1] has as its system ICR mice. The experiment in a line: Blood pressure of pentobarbital-anesthetized ICR mice (femoral artery cannula). Type of test: in vivo, mouse. The text has this:
By way of example, ICR mice were anesthetized with pentobarbital, and polyethylene cannulae were inserted into the femoral artery and vein for monitoring blood pressure and injecting drugs, respectively. Blood pressure was monitored directly by connecting the arterial cannula to a pressure transducer and physiograph.

The subject of test [2] is Rat isolated mesenteric branch arteries. Nature of the test: Vasorelaxation of rat isolated mesenteric branch arteries precontracted with phenylephrine, wire myograph. The protocol: Arteries were mounted in a wire myograph, and precontracted with phenylephrine. Relaxation is expressed as % of the phenylephrine-induced vasoconstrictor tone, 0% representing maximal relaxation.
Rat isolated mesenteric branch arteries (˜200 μm in diameter) were precontracted with phenylephrine and measurements were recorded with a wire myograph.

Test [3] has as its system mesenteric arteries. Nature of the test: Mesenteric vasodilator response.
Test [4] concerns mesenteric arteries. Particulars: cited from earlier work; for dilation of isolated mesenteric arteries: normal rats and mice, CB1 knockout and CB1/CB2 double knockout mice.
Test [5] addresses brain cannabinoid (CB1) receptor (Homo sapiens, UniProt P21554). Particulars: cited from earlier work.
The subject of test [6] is rats and mice. Particulars: in vivo; cited from earlier work.
For test [7], the system named is normal rats and mice, CB1 knockout mice, CB1/CB2 double knockout mice. Particulars: cited from earlier work.
Test [8] relates to LPS-induced hypotension. The experiment in a line: LPS-induced hypotension in anesthetized mice. The format is in vivo, mouse. From the text:
Endotoxin was used to induce hypotension in control mice as well as in mice deficient in CB1 or both CB1 and CB2 receptors.

The test system of test [9] is mesenteric branch arteries isolated from wild-type and CB1 receptor deficient mice. Nature of the test: Calcium-induced relaxation of mouse isolated mesenteric branch arteries precontracted with norepinephrine. The settings on record: 10 μM O-1918.

brain cannabinoid (CB1) receptor, sequence (P21554 whole entry, species assumed): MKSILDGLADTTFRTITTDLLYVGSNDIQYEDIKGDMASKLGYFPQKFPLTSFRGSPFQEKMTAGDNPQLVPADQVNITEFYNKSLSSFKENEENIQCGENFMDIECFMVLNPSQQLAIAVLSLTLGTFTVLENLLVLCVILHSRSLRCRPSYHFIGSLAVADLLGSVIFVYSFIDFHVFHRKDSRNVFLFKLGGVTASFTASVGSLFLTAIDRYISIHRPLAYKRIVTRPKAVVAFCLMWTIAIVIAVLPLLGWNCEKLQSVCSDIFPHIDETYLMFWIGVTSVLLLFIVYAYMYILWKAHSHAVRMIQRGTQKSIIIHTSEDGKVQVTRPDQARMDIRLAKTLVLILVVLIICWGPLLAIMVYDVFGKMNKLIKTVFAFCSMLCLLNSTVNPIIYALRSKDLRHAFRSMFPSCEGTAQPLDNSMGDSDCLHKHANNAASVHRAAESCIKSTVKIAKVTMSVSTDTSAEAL

For orientation: EC50 means the concentration needed to bring the measured effect to its halfway point. Consider `C=C(C)[C@@H]1CCC(C)=C[C@H]1c1c(O)cc(O)cc1CCCCC` [Abn-cbd, abnormal cannabidiol], for which the “effect on blood pressure” value is “transient drop in blood pressure followed by a brief increase and then a more prolonged, significant decrease in pressure” in test [1] (intravenous injection of 10 mg/kg Abn-cbd); “lower blood pressure” in test [7] (normal rats and mice, CB1 knockout and CB1/CB2 double knockout mice). In test [2], the “type of agonism in vasorelaxation” value was “full agonist”. Moreover, the EC50 in test [2] (Abn-cbd alone, read-out: vasorelaxation EC50) came out at 3.3 ± 0.5 µM; in [2] (in the presence of 10 μM O-1918, read-out: vasorelaxation EC50 in the presence of O-1918) it was 26 ± 10 µM. Moreover, the “vasodilator response in presence of L-NAME and indomethacin” value in test [3] (100 μM L-NAME and 10 μM indomethacin) is reported as “remains unchanged”. Further, in test [3] (bolus injection of 4 mg Abn-cbd, 5 μM capsazepine), the “vasodilation in presence of capsazepine” value is on record as “elicited the same long lasting vasodilation”. In addition, the “dilation of isolated mesenteric arteries” value in test [4] is given as “dilate isolated mesenteric arteries”. In addition, the “binding to CB1 receptor” value in test [5] is on record as “does not bind to CB1 receptors”. The neurobehavioral effects entry in test [6] is reported as “does not elicit cannabinoid-like neurobehavioral effects”.

On to `CCCCCCC(C)(C)c1cc(O)c2c(c1)OC(C)(C)[C@@H]1CC=C(CO)C[C@@H]21` [HU-210], for which, in test [7] (CB1 receptor deficient mice), the “hypotensive effect in CB1 receptor deficient mice” value is “absent”.

As for `C=C(C)C1CCC(C)=CC1c1c(OC)cc(C)cc1OC` (stereo not shown) [O-1918], the “antagonism of hypotensive effect of Abn-cbd” value in [1] (10 mg/kg O-1918, 10 min before 10 mg/kg Abn-cbd, FIG. 1A) was “the prolonged hypotensive phase of the effect of Abn-cbd was absent”. For the same molecule, the “effect on blood pressure of the antagonist alone” value in test [1] (10 mg/kg O-1918 injected alone) is “did not influence blood pressure”. In addition, the “antagonism of hypotensive effect of HU-210 (CB1/CB2 agonist)” value in [1] (FIG. 1B) is reported as “did not antagonize the hypotensive effect of HU-210”. Also, in test [8] (10 mg/kg O-1918, normal anesthetized mice, 100 mg/kg LPS), the “prevention of LPS-induced hypotension” value was “prevent the hypotension”. Also, in test [8] (pretreatment 1 to 10 mg/kg O-1918, ICR mice, 100 ng/kg LPS i.v., FIG. 3), the “inhibition of LPS-induced hypotension” value is on record as “dose-dependently inhibited”. The “inhibition of calcium-induced relaxation” value in test [9] was “inhibited the calcium-induced relaxation”. Besides, in [2] (10 μM O-1918), the “inhibition of vasorelaxation caused by CGRP” value is listed as “did not inhibit the vasorelaxation” and the “inhibition of vasorelaxation caused by carbachol” value is given as “did not inhibit the vasorelaxation”. Also, the “effect on vascular tone” value in test [2] (concentrations up to 30 μM) is on record as “did not alter vascular tone”. In [2] (preincubation with 1–10 μM O-1918, FIG. 4), the “shift of dose-response curve to Abn-cbd” value is “progressively right-shifted; also recorded: concentration-dependent inhibition of the relaxing effect of Abn-cbd”.

On to `Cc1c(C(=O)NN2CCCCC2)nn(-c2ccc(Cl)cc2Cl)c1-c1ccc(Cl)cc1` [SR141716A], for which the “inhibition of LPS-induced hypotension” value in test [8] (pretreatment 3 mg/kg SR141716A, wild-type mice, CB1 deficient and CB1/CB2 deficient mice, FIG. 2) was “inhibited; also recorded: could be prevented”.

For `C=C(C)[C@@H]1CCC(C)=C[C@H]1c1c(O)cc(CCCCC)cc1O` [cannabidiol], the “antagonism of vasodilator effect of Abn-cbd” value in test [4] (mesenteric) is “able to antagonize the vasodilator effect of Abn-cbd”. Further, the “dilation of isolated mesenteric arteries” value in [4] was “does not elicit mesenteric vasodilation”. The neurobehavioral effects result in test [6] was “devoid of neurobehavioral effects”.
